Laboratory results as given in PMC11742280, “A phase I study of MLN4924 and belinostat in relapsed/refractory acute myeloid leukemia or myelodysplastic syndrome” (Cancer Chemotherapy and Pharmacology, 2025).
Like-named read-outs stand apart in the source and are kept apart here. One block for each compound: values may come before it.

Columns and labels:
[1] = in vivo
Protocol: (§1) Belinostat was administered by a 30 min intravenous (IV) infusion on days 1 through 5 of each cycle; pevonedistat was administered by a 60 min IV infusion on days 1, 3 and 5 immediately after belinostat. The treatments were repeated on 21-day cycles until disease progression or unacceptable toxicity. […] The regimen was administered on an outpatient basis.
(§2) Blood samples for measurement of plasma concentrations were collected on day 1 of cycle 1 for both belinostat and pevonedistat. Belinostat, PK samples were collected pretreatment, 5 min prior to the end of the infusion, and at 0.25, 0.5, 1, 2, 4, 6, 8, and 24 h after the end of the infusion. Pevonedistat, PK samples were collected pretreatment and 0.5, 1, 2, 2.5, 5, and 24 h after the start of the infusion. Plasma was stored at − 80 °C until analysis. […] Concentrations of belinostat were determined over the range of 30–5000 ng/mL with dilutions of up to 1:100 v/v using a validated LC/MS/MS method at the Analytical Pharmacology Core Laboratory at the Sidney Kimmel Comprehensive Cancer Center at Johns Hopkins [33].
(§3) Pharmacokinetic parameters were calculated from individual concentration–time data using standard noncompartmental methods as implemented in Phoenix WinNonlin version 8.2 (Pharsight A Certara Company, Cary, North Carolina). Pharmacokinetic parameters were summarized using descriptive statistics. Differences between the pharmacokinetic parameters between dose levels or BSA-based dose were evaluated statistically via the nonparametric Kruskal–Wallis test. All statistical tests were performed using JMP Statistical Discovery software (version 7; SAS Institute, Cary, NC).

high-risk MDS = tested on: high-risk MDS; parameters: method as in PMID 35728048; settings: comparator (azacitidine without pevonedistat); subset with high-risk MDS, post-hoc analysis; cited from earlier work
[2] = parameters: method as in PMID 31097586, PMID 33441097; settings: e.g. value, compared with clinical Cmax; cited from earlier work
[3] = Plasma pharmacokinetics of belinostat and belinostat glucuronide (LC/MS/MS, noncompartmental analysis)
Protocol: as §1, §2, §3

[4] = tested on: relapsed/refractory AML and myelodysplastic syndrome; parameters: method as in PMID 24369094, PMID 21538061; settings: some patients; cited from earlier work
[5] = cycle 1 day 1, dose level 1, belinostat 800 mg/m^2 IV (pevonedistat 20 mg/m^2), n=2, actual values
[6] = cycle 1 day 1, dose level 3, belinostat 800 mg/m^2 IV (pevonedistat 37 mg/m^2), n=2, actual values

Pharmacokinetic parameters compared between dose levels [1]: not different by dose level
Structure (SMILES): O=C(/C=C/c1cccc(S(=O)(=O)Nc2ccccc2)c1)NO[C@@H]1O[C@H](C(=O)O)[C@@H](O)[C@H](O)[C@H]1O [Belinostat glucuronide]

Structure (SMILES): Nc1ncn([C@@H]2O[C@H](CO)[C@@H](O)[C@H]2O)c(=O)n1 [azacitidine]
Survival (high-risk MDS): 20.6 mos

Belinostat clearance by BSA-based dose ([3]; 1000 mg/m^2 compared with 800 mg/m^2, p = 0.05, Kruskal–Wallis): significantly higher
AUCINF [3, 5]: 75.2 µM·h
Cl (systemic clearance) [3, 5]: 87.5 L/h
T1/2 [3, 5]: 40.2 min
Tmax ([3]; cycle 1 day 1, dose level 2, belinostat 800 mg/m^2 IV (pevonedistat 25 mg/m^2), median (range; n)): 0.5 (0.4–0.5; 3) h
Tmax ([3]; cycle 1 day 1, dose level 3, belinostat 800 mg/m^2 IV (pevonedistat 37 mg/m^2), median (range; n)): 0.4 (0.4–0.5; 3) h
AUCINF [3, 6]: 87.4 µM·h
Cl (systemic clearance) [3, 6]: 82.4 L/h
T1/2 [3, 6]: 87.6 min
Pharmacokinetic parameters compared between dose levels ([3]; dose levels 1-5, Kruskal–Wallis): not different by dose level
Tmax ([3]; human, plasma, iv): 30 min
AUC(0-inf) ([3]; human, plasma, iv, 800 mg/m2, AUCINF, cycle 1 day 1, belinostat 800 mg/m^2 IV, all 800 mg/m^2 patients (dose levels 1-3), mean±SD, n=7): 67.5 ± 19.1 µM·h
clearance ([3]; human, plasma, iv, 800 mg/m2, Cl (systemic clearance), cycle 1 day 1, belinostat 800 mg/m^2 IV, all 800 mg/m^2 patients (dose levels 1-3), mean±SD, n=7): 1290 mL/min
half-life ([3]; human, plasma, iv, 800 mg/m2, T1/2, cycle 1 day 1, belinostat 800 mg/m^2 IV, all 800 mg/m^2 patients (dose levels 1-3), mean±SD, n=7): 67.8 ± 30 min
AUC(0-inf) ([3]; human, plasma, iv, 1000 mg/m2, AUCINF, cycle 1 day 1, belinostat 1000 mg/m^2 IV, all 1000 mg/m^2 patients (dose levels 4-5), mean±SD, n=7): 51.6 ± 25.8 µM·h
clearance ([3]; human, plasma, iv, 1000 mg/m2, Cl (systemic clearance), cycle 1 day 1, belinostat 1000 mg/m^2 IV, all 1000 mg/m^2 patients (dose levels 4-5), mean±SD, n=7): 2180 mL/min
half-life ([3]; human, plasma, iv, 1000 mg/m2, T1/2, cycle 1 day 1, belinostat 1000 mg/m^2 IV, all 1000 mg/m^2 patients (dose levels 4-5), mean±SD, n=7): 53.4 ± 18 min
Cmax ([3]; human, plasma, iv, 1000 mg/m2, preEOI Cmax (peak plasma concentration), cycle 1 day 1, belinostat 1000 mg/m^2 IV, all 1000 mg/m^2 patients (dose levels 4-5), mean±SD, n=7): 104 ± 37.8 µM
AUC(0-inf) ([3]; human, plasma, iv, AUCINF, cycle 1 day 1, dose level 1, belinostat 800 mg/m^2 IV (pevonedistat 20 mg/m^2), n=2, actual values): 54.6 µM·h
AUC(0-inf) ([3]; human, plasma, iv, AUCINF, cycle 1 day 1, dose level 2, belinostat 800 mg/m^2 IV (pevonedistat 25 mg/m^2), mean±SD, n=3): 64.7 ± 27.4 µM·h
AUC(0-inf) ([3]; human, plasma, iv, AUCINF, cycle 1 day 1, dose level 3, belinostat 800 mg/m^2 IV (pevonedistat 37 mg/m^2), n=2, actual values): 61 µM·h
AUC(0-inf) ([3]; human, plasma, iv, AUCINF, cycle 1 day 1, dose level 4, belinostat 1000 mg/m^2 IV (pevonedistat 37 mg/m^2), mean±SD, n=3): 60.3 ± 39.2 µM·h
AUC(0-inf) ([3]; human, plasma, iv, AUCINF, cycle 1 day 1, dose level 5, belinostat 1000 mg/m^2 IV (pevonedistat 50 mg/m^2), mean±SD, n=4): 45.1 ± 13.4 µM·h
clearance ([3]; human, plasma, iv, Cl (systemic clearance), cycle 1 day 1, dose level 1, belinostat 800 mg/m^2 IV (pevonedistat 20 mg/m^2), n=2, actual values): 1000 mL/min
clearance ([3]; human, plasma, iv, Cl (systemic clearance), cycle 1 day 1, dose level 2, belinostat 800 mg/m^2 IV (pevonedistat 25 mg/m^2), mean±SD, n=3): 1380 mL/min
clearance ([3]; human, plasma, iv, Cl (systemic clearance), cycle 1 day 1, dose level 3, belinostat 800 mg/m^2 IV (pevonedistat 37 mg/m^2), n=2, actual values): 1030 mL/min
clearance ([3]; human, plasma, iv, Cl (systemic clearance), cycle 1 day 1, dose level 4, belinostat 1000 mg/m^2 IV (pevonedistat 37 mg/m^2), mean±SD, n=3): 2020 mL/min
clearance ([3]; human, plasma, iv, Cl (systemic clearance), cycle 1 day 1, dose level 5, belinostat 1000 mg/m^2 IV (pevonedistat 50 mg/m^2), mean±SD, n=4): 2300 mL/min
half-life ([3]; human, plasma, iv, T1/2, cycle 1 day 1, dose level 1, belinostat 800 mg/m^2 IV (pevonedistat 20 mg/m^2), n=2, actual values): 35.4 min
half-life ([3]; human, plasma, iv, T1/2, cycle 1 day 1, dose level 2, belinostat 800 mg/m^2 IV (pevonedistat 25 mg/m^2), mean±SD, n=3): 81.6 ± 36.6 min
half-life ([3]; human, plasma, iv, T1/2, cycle 1 day 1, dose level 3, belinostat 800 mg/m^2 IV (pevonedistat 37 mg/m^2), n=2, actual values): 67.2 min
half-life ([3]; human, plasma, iv, T1/2, cycle 1 day 1, dose level 4, belinostat 1000 mg/m^2 IV (pevonedistat 37 mg/m^2), mean±SD, n=3): 61.2 ± 26.4 min
half-life ([3]; human, plasma, iv, T1/2, cycle 1 day 1, dose level 5, belinostat 1000 mg/m^2 IV (pevonedistat 50 mg/m^2), mean±SD, n=4): 47.4 ± 7.2 min
Cmax ([3]; human, plasma, iv, preEOI Cmax (peak plasma concentration), cycle 1 day 1, dose level 1, belinostat 800 mg/m^2 IV (pevonedistat 20 mg/m^2), n=2, actual values): 109 µM
Cmax ([3]; human, plasma, iv, preEOI Cmax (peak plasma concentration), cycle 1 day 1, dose level 2, belinostat 800 mg/m^2 IV (pevonedistat 25 mg/m^2), mean±SD, n=3): 120 ± 50.3 µM
Cmax ([3]; human, plasma, iv, preEOI Cmax (peak plasma concentration), cycle 1 day 1, dose level 4, belinostat 1000 mg/m^2 IV (pevonedistat 37 mg/m^2), mean±SD, n=4): 96.5 ± 46 µM
Cmax ([3]; human, plasma, iv, preEOI Cmax (peak plasma concentration), cycle 1 day 1, dose level 5, belinostat 1000 mg/m^2 IV (pevonedistat 50 mg/m^2), mean±SD, n=3): 114 ± 29.4 µM
Cmax ([3]; read-out: preEOI Cmax (peak plasma concentration), cycle 1 day 1, belinostat 800 mg/m^2 IV, all 800 mg/m^2 patients (dose levels 1-3), mean±SD, n=8): 123 ± 34.3 µM
Cmax ([3]; read-out: preEOI Cmax (peak plasma concentration), cycle 1 day 1, dose level 1, belinostat 800 mg/m^2 IV (pevonedistat 20 mg/m^2), n=2, actual values): 144 µM
Cmax ([3]; read-out: preEOI Cmax (peak plasma concentration), cycle 1 day 1, dose level 3, belinostat 800 mg/m^2 IV (pevonedistat 37 mg/m^2), mean±SD, n=3): 125 ± 35 µM
Structure (SMILES): O=C(/C=C/c1cccc(S(=O)(=O)Nc2ccccc2)c1)NO [Belinostat]
Concentrations shown to exert activity in preclinical studies [2]: 100 to 200 nM
Single-agent clinical activity [4]: stable disease over several months
